Tested on: 786-0 complex spheroid viability
Assay: Anticancer human tumor 786-0 cell line growth inhibition;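 also: spheroids exposed to agents for seven days before readout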
Conditions: for IC50: curve of first compound; for viability, T/C: stronger effect = lower value; active = viability on the fitted dose curve at most 10% of control; inactive = the rest
Text: Multicellular complex tumor spheroid response to LSD1 Inhibitor Iadademstat in combination with a variety of drugs and investigational agents in selected tumor cell lines
The current study was undertaken to assess response to LSD1 inhibitors in combination with standard-of-care drugs and investigational agents in solid tumor complex spheroid models as well as in the K-562 leukemia. Complex spheroids include a stromal component modeled by human endothelial cells (HUVEC) and fibroblasts modeled by human mesenchymal stem cells (MSCs). The concentration ranges selected for each drug and investigational agent were based upon clinically achievable concentrations if the clinical Cmax of the agent was known.
Compounds. The drugs and investigational agents used in this study are listed on Table 1. All of the agents used, including staurosporine (NSC755774) and gemcitabine (NSC613327), were obtained from the Developmental Therapeutics Program, NCI. FDA-approved anticancer drugs are available from the NCI at http://dtp.nci.nih.gov/branches/dscb/oncology_drugset_explanation.html. Drugs and investigational agents were >95% pure by proton nuclear magnetic resonance (NMR) and liquid chromatography/mass spectrometry (LC/MS). Stock solutions were prepared at 400x in DMSO, stored at -70 degrees C, and diluted in fresh medium prior to their use. The final concentration of DMSO in cell culture wells never exceeded 0.25% (v/v). The FDA-approved anticancer drug set is available from the Developmental Therapeutics Program at https://dtp.cancer.gov/organization/dscb/obtaining/available_plates.htm. All drugs and investigational agents were tested over a range starting from a high concentration at or near the clinical Cmax and decreasing in half-log increments. If the clinical Cmax for an agent had not been determined, the highest concentration tested was 10 microM.
Cell Lines. The patient-derived cancer cell (PDC) lines: 292921-168-R-J2-PDC, K24384-001-R-PDC, and 521955-158-R2-J5-PDC pancreatic carcinomas, 556581-035-R-J1 ovarian carcinoma, 324938-238-R-J1-PDC, 855422-203-R-J1-PDC and 883617-216-R-J1-PDC urothelial bladder carcinomas, 743489-274-T-PDC renal cell carcinoma, 138582-R-J1 Merkel cell tumor, K60290-347-R-J1 and K57222-313-R-J1-PDC glioblastomas, 653999-131-R-J2-PDC, LG0703-F948-PDC, and 349418-098-R-PDC non-small cell lung carcinomas, 885512-296-R-J2-PDC, 171881-019-R-J1-PDC breast carcinomas and 186277-243-T-J2-PDC and 233499-124-R-J2-PDC colon carcinomas were obtained from the NCI Patient-Derived Models Repository (PDMR, https://pdmr.cancer.gov). The established cell lines NCI/ADR-RES (RRID:CVCL_14520 and OVCAR-5 (RRID:CVCL_1628) ovarian carcinomas, 786-O (RRID:CVCL_1051) and A498 (RRID:CVCL_A498) renal cell carcinoma, NCI-H211 (ATCC, cat. CRL-5824; RRID:CVCL_1529), NCI-H196 (ATCC, cat. CRL-5823, RRID:CVCL_1509), SW 1271 (ATCC, cat. CRL-2177, RRID:CVCL_1716) and NCI-H1876 (ATCC, cat. CRL-5902, RRID:CVCL_1503) small cell lung carcinomas, MDA-MB-231 (RRID:CVCL_0062) and MDA-MB-468 (RRID:CVCL_0419)breast carcinomas (10-12). Pooled donor human umbilical vein endothelial cells (HUVEC, Lonza, cat. CC-2519) and human mesenchymal stem cells (hMSC, Lonza, cat. PT-2501) were purchased from Lonza (Walkersville, MD).
Cell Culture. All cells were maintained in an incubator at 37 degrees C and 5% CO2 with 95% humidity. The PDC lines were cultured according to standard operating procedures established by the NCI PDMR (https://pdmr.cancer.gov). Briefly all PDCs were thawed and cultured in Matrigel-coated flasks prepared with a working solution of 1X Ham's F-12 nutrient mix, without supplementation (Invitrogen, Waltham, MA, cat. 11765054), 100 U/mL penicillin-streptomycin (Invitrogen, cat. 15140122), and 2.5% Matrigel (Corning Inc., Corning, NY, cat. 354248) for the first three passages. […]

NS(=O)(=O)OCC1CC(n2ccc3c(NC4CCc5ccccc54)ncnc32)CC1O (stereo not given) + NC1CCC(NC2CC2c2ccccc2)CC1
104 nM: IC50 (second compound 10 µM)
inactive: viability, T/C (second compound 0.1 µM, first compound 0.00949 µM) 111% | viability, T/C (second compound 0.1 µM, first compound 0.03 µM) 86.7% | viability, T/C (second compound 0.1 µM, first compound 0.0949 µM) 65.6% | viability, T/C (second compound 0.1 µM, first compound 0.3 µM) 13.4% | viability, T/C (second compound 0.316 µM, first compound 0.00949 µM) 115% | viability, T/C (second compound 0.316 µM, first compound 0.03 µM) 87.3% | viability, T/C (second compound 0.316 µM, first compound 0.0949 µM) 71.4% | viability, T/C (second compound 0.316 µM, first compound 0.3 µM) 15.2% | viability, T/C (second compound 1 µM, first compound 0.00949 µM) 113% | viability, T/C (second compound 1 µM, first compound 0.03 µM) 94.6% | viability, T/C (second compound 1 µM, first compound 0.0949 µM) 74.2% | viability, T/C (second compound 1 µM, first compound 0.3 µM) 17.9% | viability, T/C (second compound 3.16 µM, first compound 0.00949 µM) 101% | viability, T/C (second compound 3.16 µM, first compound 0.03 µM) 78.9% | viability, T/C (second compound 3.16 µM, first compound 0.0949 µM) 67.3% | viability, T/C (second compound 3.16 µM, first compound 0.3 µM) 15.5% | viability, T/C (second compound 10 µM, first compound 0.00949 µM) 73.6% | viability, T/C (second compound 10 µM, first compound 0.03 µM) 58.5% | viability, T/C (second compound 10 µM, first compound 0.0949 µM) 54.6% | viability, T/C (second compound 10 µM, first compound 0.3 µM) 15.5%
125 nM: IC50 (second compound 0.1 µM)
133 nM: IC50 (second compound 3.16 µM)
153 nM: IC50 (second compound 1 µM)
139 nM: IC50 (second compound 0.316 µM)
active: viability, T/C (second compound 0.1 µM, first compound 0.949 µM) 3.43% | viability, T/C (second compound 0.1 µM, first compound 3 µM) 5.07% | viability, T/C (second compound 0.316 µM, first compound 0.949 µM) 3.67% | viability, T/C (second compound 0.316 µM, first compound 3 µM) 5.22% | viability, T/C (second compound 1 µM, first compound 0.949 µM) 3.16% | viability, T/C (second compound 1 µM, first compound 3 µM) 4.86% | viability, T/C (second compound 3.16 µM, first compound 0.949 µM) 3.16% | viability, T/C (second compound 3.16 µM, first compound 3 µM) 3.27% | viability, T/C (second compound 10 µM, first compound 0.949 µM) 1.53% | viability, T/C (second compound 10 µM, first compound 3 µM) 1.72%

CC(C)CC(NC(=O)CNC(=O)c1cc(Cl)ccc1Cl)B1OC(=O)CC(CC(=O)O)(C(=O)O)O1 (stereo not given) + NC1CC1c1ccc(-c2cccc(O)c2)cc1
13.3 nM: IC50 (second compound 3.16 µM)
9.46 nM: IC50 (second compound 10 µM)
14.7 nM: IC50 (second compound 1 µM)
14.8 nM: IC50 (second compound 0.316 µM)
inactive: viability, T/C (second compound 0.1 µM, first compound 0.000316 µM) 95.1% | viability, T/C (second compound 0.1 µM, first compound 0.001 µM) 106% | viability, T/C (second compound 0.1 µM, first compound 0.00316 µM) 93.2% | viability, T/C (second compound 0.1 µM, first compound 0.01 µM) 55.9% | viability, T/C (second compound 0.1 µM, first compound 0.0316 µM) 33.5% | viability, T/C (second compound 0.1 µM, first compound 0.1 µM) 16.6% | viability, T/C (second compound 0.316 µM, first compound 0.000316 µM) 111% | viability, T/C (second compound 0.316 µM, first compound 0.001 µM) 106% | viability, T/C (second compound 0.316 µM, first compound 0.00316 µM) 97.7% | viability, T/C (second compound 0.316 µM, first compound 0.01 µM) 59.3% | viability, T/C (second compound 0.316 µM, first compound 0.0316 µM) 30.5% | viability, T/C (second compound 0.316 µM, first compound 0.1 µM) 17.1% | viability, T/C (second compound 1 µM, first compound 0.000316 µM) 101% | viability, T/C (second compound 1 µM, first compound 0.001 µM) 102% | viability, T/C (second compound 1 µM, first compound 0.00316 µM) 90.5% | viability, T/C (second compound 1 µM, first compound 0.01 µM) 57.6% | viability, T/C (second compound 1 µM, first compound 0.0316 µM) 33.2% | viability, T/C (second compound 1 µM, first compound 0.1 µM) 17.4% | viability, T/C (second compound 3.16 µM, first compound 0.000316 µM) 88.6% | viability, T/C (second compound 3.16 µM, first compound 0.001 µM) 100% | viability, T/C (second compound 3.16 µM, first compound 0.00316 µM) 88.1% | viability, T/C (second compound 3.16 µM, first compound 0.01 µM) 54.6% | viability, T/C (second compound 3.16 µM, first compound 0.0316 µM) 31.4% | viability, T/C (second compound 3.16 µM, first compound 0.1 µM) 15.6% | viability, T/C (second compound 10 µM, first compound 0.000316 µM) 88% | viability, T/C (second compound 10 µM, first compound 0.001 µM) 89.5% | viability, T/C (second compound 10 µM, first compound 0.00316 µM) 84% | viability, T/C (second compound 10 µM, first compound 0.01 µM) 45.4% | viability, T/C (second compound 10 µM, first compound 0.0316 µM) 27.4% | viability, T/C (second compound 10 µM, first compound 0.1 µM) 12.4%
14.1 nM: IC50 (second compound 0.1 µM)

Source: PubChem BioAssay AID1918944 (Molecular Pharmacology Branch, DTP, NCI, 2023)
